Results on one compound are retold here after PMC10517971, “An inverse agonist of orphan receptor GPR61 acts by a G protein-competitive allosteric mechanism” (Nature Communications, 2023).

For assay [1], the target named is T1, hERG (Homo sapiens, UniProt Q12809). The experiment in a line: hERG ion channel profiling, Qube384 automated patch clamp (standard and extended protocol). Format: cell-based. From the text:
105 hERG, Nav1.5 and Cav1.2 Ion Channel Profiling
106 Ionic curr ents wer e evalu ated in the whole-cell con figuration using the Qube384 automated planar
107 patch clamp platform (Sophion Bioscience A/S, Ballerup, Denmark). QChip 384X plates,
108 containing 10 patch clamp holes per well, were used to maximize success rate, which was routinely
110 For hERG experiments, the external solution was composed of (in mM): 132 NaCl, 4 KCl, 1.8
111 CaCl2, 1.2 MgCl2, 10 HEPES, 11 Glucose, pH 7.4, 305 mOsM. […]
121 The hERG current was elicited from a holding potential of - 80 mV by a voltage step to +40 mV
122 for 500 ms, followed by a repolarizing ramp to - 80 mV at - 0.6 mV/ms. This pattern was repeated
123 at a rate of 0.05 Hz. Peak hERG current was measured during the ramp. […]
126 Nav1.5 current, from a holding potential of - 80 mV, a 200 ms prepulse to - 120 mV was used to
127 homogenize channel inactivation, followed by a 40 ms step to a test potential of - 15 mV.
128 Membrane potential was further depolarized to +40 mV for 200 ms to completely inactivate the
129 peak Nav1.5 current, followed by a ramp from +40 mV to - 80 mV (-1.2 mV/ms). This voltage
130 pattern was repeated at 0.1 Hz, with peak Nav1.5 defined as the maximum current during the step
131 to - 15 mV. All studies were conducted at 23° C.
132 Compounds were dissol ved and initially diluted in dimethyl sulfoxide (DMSO), with a final
133 dilution in external solution to generate final working concent rations. The final DMSO
134 concentration in all experiments was 0.33% (v/v).
135 For all protocols three vehicle periods each lasting 5 minutes were applied to establish a stable
136 baseline. For the standard protocol this was followed by the addition of increasing concentrations
137 of test compound, with each exposure lasting 5 minutes. For the “extended” protocol following
138 the three- vehi cle additional each well subsequentl y received a single concentration of compound.
139 This application was repeated three times for each well, via a flowthrough addition where the
140 solution was replaced wi th the same compound concentration with each addition. Each exposure
142 Patch clamp data were analyzed using Assay Software 6.4.72 (Sophion Bioscience A/S, Ballerup,
143 Denmark). Current amplitudes were determined by averaging the last 4 currents under each test
144 condition. The percentage inhibition of each compound was determined by taking the ratio of
145 current amplitude measured in the presence of various concentrations of the test compound
146 (ICompound) versus the vehicle control current (IVehicle):
148 A dose-response curve was generat ed and fit to the Hill equation by the Sophion Analyzer software
149 to determine an IC50 value for each compound. The minimum and the slope of the fit were free […]
(hERG is a cardiac potassium channel; its block is linked to QT prolongation.)

In assay [2] the target is T1, hERG. The experiment in a line: hERG Binding Assay (fluorescence polarization, Cy3B N-desmethyl dofetilide). Also on record: expressed in transfected cells; membrane homogenate used. Here is the method:
67 black 384 well flat -bottomed polystyrene plates. Compound/vehicle or standard (5 µL) were added
68 to wells followed by His -tagged BRD4 (10 µL; 40 nM final concentration in assay). Following a
69 15 min incubation at room temperature a propri etary Cy5 -labelled probe molecule (5 µL; 2 nM
70 final concentration in assay) was added. Following, an additional 16 h incubation at room
71 temperature fluorescence polarization measurements were made using an Envision plate reader
72 (Perkin Elmer, Waltham, MA, USA) and mP values were used for analysis .
73 Acetylcholinesterase As say
74 The assay described is based on Ellmans method, in which thiocholine produced by the action of
75 acetylcholinesterase forms a yellow color with 5,5'- dithiobis(2- nitrobenzoic acid). The intensity
76 of the product color, measured at 405 nm, is proportionate to the enzyme activity in the sample.
77 To each well of a clear 96 polystyrene plate 90 µL enzyme solution (1mU/well) or phosphate
78 buffered saline (PBS) and 10 µL compound/standard or vehicle was added. The plate was […]
81 read at the 20 min time point. […]
100 at room temperature for 16 h. Fluorescence polarization measurements were made using an
101 Envision plate reader (Perkin Elmer, Waltham, M A, USA) and mP values were us ed for analysis.
102 Binding Ki values were determined using the Cheng- Prusoff equation (Ki = IC50/(1+L/Kd)), where […]

Each structure is given as a SMILES string. Read-outs that look alike come from different tables or passages of the source.

T1 sequence (Q12809 whole entry): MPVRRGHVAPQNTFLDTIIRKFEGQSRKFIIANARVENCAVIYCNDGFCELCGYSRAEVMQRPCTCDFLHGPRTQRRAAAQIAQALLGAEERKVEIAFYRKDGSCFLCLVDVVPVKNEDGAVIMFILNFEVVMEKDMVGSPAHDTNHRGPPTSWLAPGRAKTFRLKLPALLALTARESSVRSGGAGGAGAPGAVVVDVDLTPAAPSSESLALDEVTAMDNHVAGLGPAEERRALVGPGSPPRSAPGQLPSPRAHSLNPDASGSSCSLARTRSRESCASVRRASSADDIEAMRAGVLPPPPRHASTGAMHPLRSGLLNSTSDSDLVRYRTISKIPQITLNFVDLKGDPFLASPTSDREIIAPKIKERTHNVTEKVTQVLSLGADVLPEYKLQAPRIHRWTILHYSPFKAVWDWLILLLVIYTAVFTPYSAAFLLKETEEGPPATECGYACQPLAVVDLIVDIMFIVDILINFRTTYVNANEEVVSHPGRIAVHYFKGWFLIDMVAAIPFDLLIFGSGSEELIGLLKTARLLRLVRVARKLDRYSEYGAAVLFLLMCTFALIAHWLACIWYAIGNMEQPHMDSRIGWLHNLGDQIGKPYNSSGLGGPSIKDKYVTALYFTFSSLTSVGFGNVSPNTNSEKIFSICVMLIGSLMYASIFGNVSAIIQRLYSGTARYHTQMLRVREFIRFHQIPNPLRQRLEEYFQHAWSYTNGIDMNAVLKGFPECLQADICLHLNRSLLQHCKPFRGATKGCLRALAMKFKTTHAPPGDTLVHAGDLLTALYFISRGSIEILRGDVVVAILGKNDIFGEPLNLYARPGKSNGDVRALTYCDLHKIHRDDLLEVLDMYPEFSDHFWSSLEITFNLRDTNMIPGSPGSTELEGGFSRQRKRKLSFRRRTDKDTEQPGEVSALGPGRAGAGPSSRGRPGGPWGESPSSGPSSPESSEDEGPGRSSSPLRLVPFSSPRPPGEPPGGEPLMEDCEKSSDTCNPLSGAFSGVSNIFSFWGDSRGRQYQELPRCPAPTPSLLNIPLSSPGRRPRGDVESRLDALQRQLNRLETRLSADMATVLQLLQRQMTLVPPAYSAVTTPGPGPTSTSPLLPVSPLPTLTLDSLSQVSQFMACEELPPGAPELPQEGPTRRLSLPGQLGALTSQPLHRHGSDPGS

As to `CCOc1cc(C)nc(N(CCOC)S(=O)(=O)c2ccc(NCc3c(F)cncc3F)nc2OC)n1` [Compound 1], the IC50 on hERG [1] (extended protocol, 1st period, read-out: Ion Channel Extended Protocol IC50 (nM), Period 1st) stood at 36500 nM; on hERG [1] (extended protocol, 2nd period, read-out: Ion Channel Extended Protocol IC50 (nM), Period 2nd), 28000 nM; at hERG [1] (extended protocol, 3rd period, read-out: Ion Channel Extended Protocol IC50 (nM), Period 3rd), 18700 nM; at hERG [1] (standard protocol, read-out: Patch IC50) it was 52900 nM. The inhibition constant Ki on hERG [2] is over 80 µM.

In general, IC50 refers to the midpoint of a concentration-inhibition curve. What is called Ki is the dissociation constant of the complex between target and ligand, obtained from inhibition or displacement. Low readings indicate higher affinity, high ones lower affinity.
